Measurements: paper PMC7933358, “Enzymatic spiroketal formation via oxidative rearrangement of pentangular polyketides” (Nature Communications, 2021)

Tests used:
GrhO5 = target: T1, GrhO5 (Streptomyces sp. JP95, UniProt Q8KSX7); test: identification of flavin bound to purified enzyme by HPLC; assay type: binding; conditions: co-purified cofactor
T1 construct: full-length gene in pMAL-c5x-His (NdeI/PstI), N-terminal MBP tag kept; E. coli BL21 (DE3); amplified from cosmid pMP31
T1 sequence (Q8KSX7 1-537): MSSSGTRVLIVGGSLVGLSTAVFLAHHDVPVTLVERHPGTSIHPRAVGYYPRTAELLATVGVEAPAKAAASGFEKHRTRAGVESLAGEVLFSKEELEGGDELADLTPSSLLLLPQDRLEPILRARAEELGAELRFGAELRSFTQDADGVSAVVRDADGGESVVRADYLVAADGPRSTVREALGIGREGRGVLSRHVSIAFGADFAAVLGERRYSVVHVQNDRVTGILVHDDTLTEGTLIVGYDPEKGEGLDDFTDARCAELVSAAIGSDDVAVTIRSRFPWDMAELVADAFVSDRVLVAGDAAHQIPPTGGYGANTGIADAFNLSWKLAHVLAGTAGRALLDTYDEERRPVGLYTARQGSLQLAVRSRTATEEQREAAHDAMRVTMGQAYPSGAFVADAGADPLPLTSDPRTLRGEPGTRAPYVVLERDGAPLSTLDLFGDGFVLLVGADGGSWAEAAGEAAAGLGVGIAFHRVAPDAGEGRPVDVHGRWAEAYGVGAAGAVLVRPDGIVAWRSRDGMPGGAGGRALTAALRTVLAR

GrhO6 = target: T2, GrhO6 (Streptomyces sp. JP95, UniProt Q8KSX5); test: as above; assay type: binding; conditions: co-purified cofactor, tight, non-covalent
T2 construct: full-length gene in pETDuet-1 (EcoRI/PstI), polyhistidine tag kept; E. coli BL21 (DE3)
T2 sequence (Q8KSX5 1-520): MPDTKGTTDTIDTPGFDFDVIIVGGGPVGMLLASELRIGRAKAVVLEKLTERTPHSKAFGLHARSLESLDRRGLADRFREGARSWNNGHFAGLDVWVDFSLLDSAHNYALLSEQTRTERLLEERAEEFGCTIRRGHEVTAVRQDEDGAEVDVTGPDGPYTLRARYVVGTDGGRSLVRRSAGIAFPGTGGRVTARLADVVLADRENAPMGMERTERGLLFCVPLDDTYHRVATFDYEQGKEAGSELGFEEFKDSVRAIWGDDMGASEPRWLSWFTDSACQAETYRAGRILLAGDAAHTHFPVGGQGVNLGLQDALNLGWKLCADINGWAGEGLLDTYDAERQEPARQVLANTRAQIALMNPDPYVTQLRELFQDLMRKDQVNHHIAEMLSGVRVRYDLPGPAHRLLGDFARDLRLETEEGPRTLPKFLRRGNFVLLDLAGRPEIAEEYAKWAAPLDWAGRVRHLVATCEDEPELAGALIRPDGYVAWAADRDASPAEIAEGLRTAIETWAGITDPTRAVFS

In the case of `Cc1cc2nc3c(=O)[nH]c(=O)nc-3n(C[C@H](O)[C@H](O)[C@H](O)COP(=O)(O)OP(=O)(O)OC[C@H]3O[C@@H](n4cnc5c(N)ncnc54)[C@H](O)[C@@H]3O)c2cc1C` [FAD], the “identification of flavin bound to purified enzyme by HPLC” value (GrhO5) is reported as “bound flavin cofactor that was further determined as flavin adenine dinucleotide” and the “identification of flavin bound to purified enzyme by HPLC” value (GrhO6) is reported as “contained a tightly, but non-covalently bound FAD cofactor similar to GrhO5”.
